This is an account of results in US5202355A, “Method of inhibiting aldose reductase in diabetic hosts using phenol derivatives” (Takasago Institute for Interdisciplinary Science Inc., priority 1991, dated 1993).

For test [1], the system named is peripheral nerve deterioration. Particulars: diabetic patients suffering from peripheral nerve deterioration; cited from earlier work.
Test [2] relates to galactosemic cataract formation. Particulars: experimental rats; cited from earlier work.
The test system of test [3] is motor nerve conduction velocity (MNCV). Particulars: short and long-term streptozotocin induced diabetes in rats; cited from earlier work.
The next test deals with T1, aldose reductase (Bos taurus, UniProt P16116).
T1 construct: The enzyme was isolated from the homogenized preparation by successive chromatography; from tissue; host or cells: calf eye lens
As to the kind of experiment: Aldose reductase inhibition (percent inhibition of enzyme activity). Format: biochemical, calf. As for the experimental part: The following phenols were tested for their ability to inhibit aldose reductase enzyme activity.
The assay was conducted essentially according to the procedure of S. Hayman, et al., as described in the Journal of Biological Chemistry, 240, 877 (1965).
The preparation of aldose reductase was conducted according to the procedure of K. Inagaki et al., ARchives of Biochemistry and Biophysics, 216, 337 (1982). Briefly, lenses were removed from calf eyes and homogenized. The enzyme was isolated from the homogenized preparation by successive chromatography on a DEAE-sephacel column (Pharmacia LKB Biotechnology, Piscataway, N.J.), an affinity column (Matrex gel red A; Amicon Co., Danvers, Mass.), and a Sephadex G-75 column (Pharmacia LKB Biotechnology, Piscataway, N.J.).
A reaction mixture of 0.1M sodium phosphate buffer (pH 6.2), 0.4M ammonium sulfate, 10 mm glyceraldehyde, 0.16 mm NADPH, and 10 ml propylene glycol solution containing the purified enzyme was prepared. The test compound was incubated with the enzyme in the reaction mixture.
Aldose reductase activity was assayed spectrophotometrically by determining the decrease in the NADPH concentration at 340 nm in a Beckman DU-64 spectrophotometer (Beckman, Palo Alto, Calif.).
The percent inhibition of each compound was calculated by comparing the reaction rate of the solution containing substrate and the compound at a given concentration with that of the control solution containing only substrate.

The target of test [4] is calf lens aldose reductase. To be noted: cited from earlier work.
Setting [5] is: 10^-6 M (× 3.8), read-out: Percent Inhibition (%).
Where [6] appears, read: 10^-6 M (× 7.5), read-out: Percent Inhibition (%).
[7] abbreviates: 10^-6 M (× 1.9), read-out: Percent Inhibition (%).

Read-outs that look alike come from different tables or passages of the source.

As to `O=C(O)CN1C(=O)c2cccc3cccc(c23)C1=O` [Alrestatin, 1,3-dioxo-1H-benz (de) isoquinoline-2(3H)-acetic acid], the “improvement in diabetic patients” value in test [1] is given as “no improvement was observed”. In test [2], the galactosemic cataract formation result is on record as “successfully prevent galactosemic cataract formation” and the sugar polyol accumulations result was “blocking the sugar polyol accumulations”. The “motor nerve conduction velocity (MNCV)” value in test [3] was “improve motor nerve conduction velocity (MNCV)”.

What is called inhibition is the relative decrease from the control value, in per cent. As for `CCCCCCCCCCCCCCCc1cccc(O)c1C(=O)O` [Compound 1, 6-Pentadecylsalicylic Acid], the inhibition on aldose reductase (setting [5]) is 27%; at aldose reductase (setting [6]), 40%.

For `CCCCCC/C=C\CCCCCCCc1cccc(O)c1C(=O)O` [Compound 2, 6-[8(z)-pentadecenyl]salicylic acid], the figures for the inhibition on aldose reductase (setting [7]), on aldose reductase (setting [5]) and at aldose reductase (setting [6]) were 9%, 42% and 91%, respectively.

With `CCC/C=C\C/C=C\CCCCCCCc1cccc(O)c1C(=O)O` [Compound 3, 6-[8(z),11(z)-pentadecadienyl]salicylic acid], the inhibition at aldose reductase (setting [7]) worked out at 1%; at aldose reductase (setting [5]), 18%; on aldose reductase (setting [6]), 91%.

Turning to `C=CC/C=C\C/C=C\CCCCCCCc1cccc(O)c1C(=O)O` [Compound 4, 6-[8(z),11(z),14-pentadecatrienyl]salicylic acid], the inhibition on aldose reductase (setting [7]) was determined as 47%; at aldose reductase (setting [5]), 60%; on aldose reductase (setting [6]) it was 77%.

Take `CCC/C=C\C/C=C\CCCCCCCc1cc(O)c(C)c(O)c1` [Compound 11, 2-methyl-5-[8(z),11(z)-pentadecadienyl]resorcinol]: the figures for the inhibition at aldose reductase (setting [5]) and at aldose reductase (setting [6]) were 22% and 43%, respectively.

On to `C=CC/C=C\C/C=C\CCCCCCCc1cc(O)c(C)c(O)c1` [Compound 12, 2-methyl-5-[8(z),11(z),14-pentadecatrienyl]resorcinol], for which the inhibition is 28% on aldose reductase (setting [5]) and 53% on aldose reductase (setting [6]).

Turning to `C=CC/C=C\C/C=C\CCCCCCCc1cc(O)cc(O)c1` [Compound 16, 5-[8(z),11(z),14-pentadecatrienyl]resorcinol], the inhibition at aldose reductase (read-out: Percent Inhibition (%), 10^-6 M (× 1.9)) is 12%; on aldose reductase (read-out: Percent Inhibition (%), 10^-6 M (× 3.8)), 16%; at aldose reductase (read-out: Percent Inhibition (%), 10^-6 M (× 7.5)) it was 85%.

For the molecule `O=C1NC(=O)[C@@]2(CCOc3ccc(F)cc32)N1` [sorbinil, d-6-fluoro-spiro [chroman-4,4'-imidazolidine]-2',5'-dione], the “improvement in diabetic patients” value in test [1] is recorded as “no beneficial effect was observed”. Further, the “motor nerve conduction velocity (MNCV)” value in test [3] was “improve motor nerve conduction velocity (MNCV)”. Moreover, the IC50 in test [4] (calf lens aldose reductase, read-out: IC50 concentration) is around 500 nM. In test [4], the “aldose reductase inhibitor potency (in words)” value is listed as “one of the most potent inhibitors heretofore investigated”.
